# Measured values: patent US11033631B2, “Methods of treating CYP2D6 alternative metabolizers” (Nektar Therapeutics, priority 2008, dated 2021)
# Counter-ions that a name gives are not always drawn. Like-named read-outs stand apart in the source and are kept apart here.
# What was measured:
# [1] = target: T1, CYP2D6 (Homo sapiens, UniProt P10635)
# [2] = target: T1, CYP2D6; assay: Microsomal inhibition study, inhibition of bufuralol metabolism (Example 1); settings: read-out: 2D6 Affinity (IC50), Table 2
# Text: The degree of a given molecule's metabolism by and affinity for CYP2D6 and other CYP isoforms may be assessed by any techniques known in the art, including through the use of Bactosomes™ or by microsomal inhibition studies. In vitro metabolism studies using Bactosomes™ expressing individual human CYP isoforms monitor the extent to which a test compound is metabolized by a single CYP450 enzyme and allow identification of the CYP isoforms that may be responsible for the metabolism of a test compound. […] These techniques can be used to assess the metabolism and affinity of not only the unconjugated version of a CYP2D6 bioactive drug but conjugated versions as well.
# [3] = target: T2, CYP3A4 (Homo sapiens, UniProt P08684); assay: Microsomal inhibition study, inhibition of midazolam metabolism (Example 1); settings: read-out: 3A4 Affinity (IC50), Table 2
# T2 sequence (P08684 whole entry): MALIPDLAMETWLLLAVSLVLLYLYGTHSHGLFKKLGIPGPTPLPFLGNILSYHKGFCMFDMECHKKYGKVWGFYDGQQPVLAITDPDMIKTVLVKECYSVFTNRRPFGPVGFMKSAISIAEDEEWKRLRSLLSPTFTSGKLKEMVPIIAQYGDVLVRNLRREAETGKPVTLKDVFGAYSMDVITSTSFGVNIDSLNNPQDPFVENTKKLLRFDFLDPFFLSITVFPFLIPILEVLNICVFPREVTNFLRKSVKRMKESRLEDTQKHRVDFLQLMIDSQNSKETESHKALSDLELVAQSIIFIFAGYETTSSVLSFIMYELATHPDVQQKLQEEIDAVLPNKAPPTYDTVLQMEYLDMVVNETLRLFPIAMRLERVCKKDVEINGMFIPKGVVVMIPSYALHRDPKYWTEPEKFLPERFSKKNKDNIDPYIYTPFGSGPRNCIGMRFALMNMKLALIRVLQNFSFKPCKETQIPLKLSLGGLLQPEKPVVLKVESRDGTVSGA
# [4] = target: T1, CYP2D6; assay: biochemical
# [5] = target: T2, CYP3A4
# [6] = target: T2, CYP3A4; settings: microsomes
# [7] = read-out: CYP2D6 Inhibition of dextromethorphan O-demethylation IC50, human liver microsomes 0.1 mg/mL, test compound 0.1-25 μM, 5 minutes
# [8] = read-out: CYP3A4 Inhibition of testosterone 6β-hydroxylation IC50, human liver microsomes 0.1 mg/mL, test compound 0.1-25 μM, 5 minutes
# T1 sequence (P10635 whole entry): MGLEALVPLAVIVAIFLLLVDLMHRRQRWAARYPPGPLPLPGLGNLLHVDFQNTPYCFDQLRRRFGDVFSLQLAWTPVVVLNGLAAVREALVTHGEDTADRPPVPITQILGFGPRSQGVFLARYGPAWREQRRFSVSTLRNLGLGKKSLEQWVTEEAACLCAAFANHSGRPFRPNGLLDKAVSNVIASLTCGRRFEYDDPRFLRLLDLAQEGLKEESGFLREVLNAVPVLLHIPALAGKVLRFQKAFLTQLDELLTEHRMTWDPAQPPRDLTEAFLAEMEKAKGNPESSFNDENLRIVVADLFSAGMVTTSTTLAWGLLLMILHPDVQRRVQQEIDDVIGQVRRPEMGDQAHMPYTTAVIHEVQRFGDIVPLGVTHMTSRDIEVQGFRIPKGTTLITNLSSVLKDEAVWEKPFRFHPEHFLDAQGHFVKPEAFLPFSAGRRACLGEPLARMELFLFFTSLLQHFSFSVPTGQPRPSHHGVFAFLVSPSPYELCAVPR
SMILES,"IC50 [1, 7]",IC50 [2],IC50 [3],IC50 [4],"IC50 [5, 8]",IC50 [6],IC50 ([1]; microsomes),IC50 ([5]; microsomes)
"COCCOCCOCCOCCOCCN1CCN(C(c2ccccc2)c2ccc(Cl)cc2)CC1 (stereo not drawn) [PEG-3-HZ, mPEG3-hydroxyzine]",9.7 µM,10.3 µM,17.8 µM,,,,,
N=C(N)N1CCc2ccccc2C1 [Debrisoquine sulfate],,,,19.5 µM,,,,
COCCOCCOCCNCCCN1c2ccccc2CCc2ccccc21 [mPEG3-NH-desipramine],1.47 µM,,,,> 25 µM,17.9 µM,,
"COCCOCCOCCOCCOCCOCCOCCN1CCN(C(c2ccccc2)c2ccc(Cl)cc2)CC1 (stereo not drawn) [PEG-5-HZ, mPEG5-hydroxyzine]",11.5 µM,11.7 µM,15.4 µM,,> 25 µM,7.9 µM,,
COCCOCCOCCN(C)CCOC(c1ccccc1)c1ccccc1 [mPEG3-N-diphenhydramine],,,,,> 25 µM,16.4 µM,2.6 µM,
COCCOCCOCCOCCOCCOCCOCCNCCCN1c2ccccc2CCc2ccccc21 [mPEG7-NH-desipramine],> 25 µM,,,,> 25 µM,9.51 µM,,
"CC(C)NCC(O)COc1cccc2ccccc12 (stereo not drawn) [Propranolol hydrochloride, reference compound]",,,,,,> 25 µM,7.5 µM,13.1 µM
COCCOCCOCCOCCN(C)CCOC(c1ccccc1)c1ccccc1 [mPEG4-N-diphenhydramine],,,,,> 25 µM,13.1 µM,9.2 µM,
